Assay results from the supplement of paper PMC10627819.

Experiments:
S. pneumoniae D39V [1] = test: Bliss interaction score (quartile over a dose matrix) (fitness difference); higher = more antagonism (negative = synergy)
Procedure, shortened: (§1)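 The Bliss score subtracts expected fitness, the product of the single-drug fitness values, from observed fitness. Fitness is plate-normalised OD595 at entry into stationary phase, relative to the robust no-drug mean and capped at 1, with single-drug fitness inferred from combinations. Summaries are quartiles over technical, biological and donor/recipient replicates.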

S. aureus Newman [2] = test: as above
Procedure, shortened: as §1

B. subtilis 168 [3] = test: as above
Procedure, shortened: as §1

S. aureus DSM 20231 [4] = test: as above
Procedure, shortened: as §1

S. pneumoniae D39V [5] = test: fitness (endpoint OD595 vs no drug) (fraction); higher = more growth
Procedure, shortened: (§2)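 With the first reading as background, OD595 was measured every 30 min for 14 h in 384-well plates kept at 37 °C and inoculated at OD595 0.01. TSB, LB Lennox or CY was the medium. Fitness is the optical density at the transition into stationary phase divided by the robust mean of no-drug control wells, with a cap of 1.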

B. subtilis 168 [6] = test: as above
Procedure, shortened: as §2

S. aureus DSM 20231 [7] = test: as above
Procedure, shortened: as §2

S. aureus Newman [8] = test: as above; settings: main component drawn
Procedure, shortened: as §2
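Throughout, for Bliss interaction score (quartile over a dose matrix): first quartile when negative (synergy) and third quartile when positive (antagonism).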

COc1cccc2c1C(=O)c1c(O)c3c(c(O)c1C2=O)C[C@@](O)(C(=O)CO)C[C@@H]3O[C@H]1C[C@H](N)[C@H](O)[C@H](C)O1 [Doxorubicin] + CCC[C@@H]1C[C@@H](C(=O)N[C@@H]([C@H]2O[C@H](SC)[C@H](O)[C@@H](O)[C@H]2O)[C@@H](C)O)N(C)C1 [Lincomycin]
Settings | Bliss interaction score
B. subtilis 168 [3] | 0.0938
S. aureus DSM 20231 [4] | 0.167
S. aureus Newman [2] | 0.164
S. pneumoniae D39V [1] | -0.0622

fitness
Settings | partner 0.1 µg/mL | partner 0.2 µg/mL | partner 0.215 µg/mL | partner 0.4 µg/mL | partner 0.43 µg/mL | partner 0.8 µg/mL | partner 0.86 µg/mL
B. subtilis 168 [6], first compound 0.625 µg/mL | 0.903 | 0.882 | – | 0.914 | – | – | –
B. subtilis 168 [6], first compound 1.25 µg/mL | 0.878 | 0.857 | – | 0.88 | – | – | –
B. subtilis 168 [6], first compound 2.5 µg/mL | 0.726 | 0.668 | – | 0.65 | – | – | –
S. aureus DSM 20231 [7], first compound 0.625 µg/mL | 0.816 | 0.757 | – | – | – | – | –
S. aureus DSM 20231 [7], first compound 1.25 µg/mL | 0.853 | 0.835 | – | – | – | – | –
S. aureus DSM 20231 [7], first compound 2.5 µg/mL | 0.875 | 0.73 | – | – | – | – | –
S. pneumoniae D39V [5], first compound 0.25 µg/mL | – | 0.57 | 0.75 | 0.337 | 0.626 | 0.0441 | 0.427
S. pneumoniae D39V [5], first compound 0.5 µg/mL | – | 0.558 | 0.744 | 0.325 | 0.67 | 0.0345 | 0.372
S. pneumoniae D39V [5], first compound 1 µg/mL | – | 0.465 | 0.792 | 0.278 | 0.664 | 0.0189 | 0.307

fitness, B. subtilis 168 [6], one replicate
Settings | first compound 0.625 µg/mL | first compound 1.25 µg/mL | first compound 2.5 µg/mL
partner 0.8 µg/mL | 0.959 | 0.831 | 0.638
partner 1.6 µg/mL | 0.914 | 0.89 | 0.684

COc1cccc2c1C(=O)c1c(O)c3c(c(O)c1C2=O)C[C@@](O)(C(=O)CO)C[C@@H]3O[C@H]1C[C@H](N)[C@H](O)[C@H](C)O1 [Doxorubicin] + COc1cc(Cc2cnc(N)nc2N)cc(OC)c1OC [Trimethoprim]
Settings | Bliss interaction score
B. subtilis 168 [3] | -0.0392
S. aureus DSM 20231 [4] | -0.0539
S. aureus Newman [2] | 0.0879
S. pneumoniae D39V [1] | -0.179

fitness, B. subtilis 168 [6], one replicate
Settings | partner 0.1 µg/mL | partner 0.2 µg/mL | partner 0.4 µg/mL | partner 1 µg/mL | partner 2 µg/mL
first compound 0.625 µg/mL | 0.868 | 0.699 | 0.524 | 0.278 | 0.222
first compound 1.25 µg/mL | 0.849 | 0.646 | 0.504 | 0.228 | 0.152
first compound 2.5 µg/mL | 0.799 | 0.559 | 0.391 | 0.126 | 0.0762

fitness
Settings | partner 0.125 µg/mL | partner 0.25 µg/mL | partner 0.5 µg/mL | partner 1 µg/mL
B. subtilis 168 [6], first compound 0.625 µg/mL | 0.628 | 0.489 | 0.435 | –
B. subtilis 168 [6], first compound 1.25 µg/mL | 0.582 | – | 0.421 | –
B. subtilis 168 [6], first compound 2.5 µg/mL | 0.469 | 0.393 | 0.37 | –
S. aureus DSM 20231 [7], first compound 0.625 µg/mL | 0.683 | 0.557 | 0.175 | 0.0314
S. aureus DSM 20231 [7], first compound 1.25 µg/mL | 0.742 | 0.56 | 0.0868 | 0.0177
S. aureus DSM 20231 [7], first compound 2.5 µg/mL | 0.728 | 0.523 | 0.0302 | 0.0244

C[C@@H]1O[C@@H]1P(=O)(O)O [Fosfomycin] + CC(=O)NC[C@H]1CN(c2ccc(N3CCOCC3)c(F)c2)C(=O)O1 [Linezolid]
Settings | Bliss interaction score
B. subtilis 168 [3] | 0.123
S. aureus DSM 20231 [4] | 0.0569
S. aureus Newman [2] | -0.134
S. pneumoniae D39V [1] | 0.0981

Settings | fitness
B. subtilis 168 [6], first compound 1.562 µg/mL, partner 0.125 µg/mL | 0.507
B. subtilis 168 [6], first compound 3.124 µg/mL, partner 0.125 µg/mL | 0.437
B. subtilis 168 [6], first compound 6.248 µg/mL, partner 0.125 µg/mL | 0.304
S. aureus DSM 20231 [7], first compound 0.781 µg/mL, partner 0.125 µg/mL | 0.691
S. aureus DSM 20231 [7], first compound 0.781 µg/mL, partner 0.25 µg/mL | 0.581
S. aureus DSM 20231 [7], first compound 0.781 µg/mL, partner 0.5 µg/mL | 0.167
S. aureus DSM 20231 [7], first compound 1.562 µg/mL, partner 0.125 µg/mL | 0.598
S. aureus DSM 20231 [7], first compound 1.562 µg/mL, partner 0.25 µg/mL | 0.495
S. aureus DSM 20231 [7], first compound 1.562 µg/mL, partner 0.5 µg/mL | 0.0991
S. aureus DSM 20231 [7], first compound 3.124 µg/mL, partner 0.125 µg/mL | 0.459
S. aureus DSM 20231 [7], first compound 3.124 µg/mL, partner 0.25 µg/mL | 0.339
S. aureus DSM 20231 [7], first compound 3.124 µg/mL, partner 0.5 µg/mL | 0.0673
S. pneumoniae D39V [5], first compound 1.25 µg/mL, partner 0.105 µg/mL | 0.839
S. pneumoniae D39V [5], first compound 1.25 µg/mL, partner 0.21 µg/mL | 0.76
S. pneumoniae D39V [5], first compound 1.25 µg/mL, partner 0.4 µg/mL | 0.314
S. pneumoniae D39V [5], first compound 1.25 µg/mL, partner 0.42 µg/mL | 0.605
S. pneumoniae D39V [5], first compound 1.25 µg/mL, partner 0.8 µg/mL | 0.138
S. pneumoniae D39V [5], first compound 2.5 µg/mL, partner 0.105 µg/mL | 0.803
S. pneumoniae D39V [5], first compound 2.5 µg/mL, partner 0.2 µg/mL | 0.626
S. pneumoniae D39V [5], first compound 2.5 µg/mL, partner 0.21 µg/mL | 0.729
S. pneumoniae D39V [5], first compound 2.5 µg/mL, partner 0.4 µg/mL | 0.315
S. pneumoniae D39V [5], first compound 2.5 µg/mL, partner 0.42 µg/mL | 0.522
S. pneumoniae D39V [5], first compound 2.5 µg/mL, partner 0.8 µg/mL | 0.132
S. pneumoniae D39V [5], first compound 5 µg/mL, partner 0.105 µg/mL | 0.721
S. pneumoniae D39V [5], first compound 5 µg/mL, partner 0.2 µg/mL | 0.564
S. pneumoniae D39V [5], first compound 5 µg/mL, partner 0.21 µg/mL | 0.704
S. pneumoniae D39V [5], first compound 5 µg/mL, partner 0.4 µg/mL | 0.311
S. pneumoniae D39V [5], first compound 5 µg/mL, partner 0.42 µg/mL | 0.421
S. pneumoniae D39V [5], first compound 5 µg/mL, partner 0.8 µg/mL | 0.136

fitness, one replicate
Settings | first compound 0.781 µg/mL | first compound 1.562 µg/mL | first compound 3.124 µg/mL | first compound 6.248 µg/mL
B. subtilis 168 [6], partner 0.0625 µg/mL | – | 0.726 | 0.606 | 0.368
S. aureus DSM 20231 [7], partner 1 µg/mL | 0.0309 | 0.0297 | 0.0078 | –

C[C@@H]1O[C@@H]1P(=O)(O)O [Fosfomycin] + CCCCCCCCCC(=O)N[C@@H]1[C@H]([C@@H]([C@H](O[C@H]1OC2=C3C=C4C=C2OC5=C(C=C(C=C5)[C@H]([C@H]6C(=O)N[C@@H](C7=C(C(=CC(=C7)O)OC8[C@H]([C@H]([C@@H]([C@H](O8)CO)O)O)O)C9=C(C=CC(=C9)[C@H](C(=O)N6)NC(=O)[C@@H]4NC(=O)[C@@H]1C2=CC(=CC(=C2)OC2=C(C=CC(=C2)[C@H](C(=O)N[C@H](CC2=CC(=C(O3)C=C2)Cl)C(=O)N1)N)O)O)O)C(=O)O)O[C@H]1[C@@H]([C@H]([C@@H]([C@H](O1)CO)O)O)NC(=O)C)Cl)CO)O)O [Teicoplanin]
main component drawn
Settings | Bliss interaction score
B. subtilis 168 [3] | -0.078
S. aureus DSM 20231 [4] | 0.154
S. aureus Newman [2] | 0.177
S. pneumoniae D39V [1] | 0.065

fitness, S. aureus Newman [8]
Settings | first compound 0.781 µg/mL | first compound 1.562 µg/mL | first compound 3.124 µg/mL
partner 0.1562 µg/mL | 0.58 | 0.525 | 0.127
partner 0.3125 µg/mL | 0.568 | 0.534 | 0.261
partner 0.625 µg/mL | 0.663 | 0.582 | 0.348

fitness
Settings | first compound 0.781 µg/mL | first compound 1.562 µg/mL | first compound 3.124 µg/mL
S. aureus DSM 20231 [7], partner 0.1562 µg/mL, main component drawn | 0.863 | 0.698 | 0.538
S. aureus DSM 20231 [7], partner 0.3125 µg/mL, main component drawn | 0.968 | 0.831 | –
S. aureus DSM 20231 [7], partner 0.625 µg/mL, main component drawn | 0.933 | 0.862 | 0.654
S. aureus Newman [8], partner 0.62 µg/mL, one replicate | 0.715 | 0.682 | 0.522
S. aureus Newman [8], partner 1.24 µg/mL, one replicate | 0.646 | 0.616 | 0.472
S. aureus Newman [8], partner 2.48 µg/mL, one replicate | 0.461 | 0.234 | 0.0834
